Source: patent US20250179066A1, “ZWITTERIONIC ANTIBACTERIAL COMPOUNDS” (Hoffmann-La Roche Inc., priority 2022, published 2025)

test system: Acinetobacter baumannii ATCC17961; assay: Antimicrobial susceptibility testing: 90% growth inhibitory concentration (IC90) determination; assay type: cell-based; conditions: Acinetobacter baumannii, ATCC17961, 16 h, 90% growth inhibitory concentration against Acinetobacter baumannii ATCC17961, Iso-Sensitest broth, OD 600 nm over 16 h; read-out: ATCC 17961 IC90
Summary of the method: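 OD600 monitored each minute over 16 h at 35±2° C for bacteria (~5×10^5 CFU/mL final) in Iso-Sensitest medium with 10-point twofold compound series (e.g. 10-0.0195 μM final). Concentration giving 90% growth inhibition in log phase reported as IC90.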

`CN1CCN(C(=O)c2c[nH]c3cc(-n4cc(-c5cnc(C(=O)Nc6ccc(C(=O)N7CCN(C(=O)[C@H]8CC[N@+](CC(=O)O)(CC9CNC9)CC8)CC7)c(Cl)c6)n5C)c(C(F)(F)F)n4)ncc23)CC1` [Example 148, cis-2-[1-(azetidin-3-ylmethyl)-4-[4-[2-chloro-4-[[1-methyl-5-[1-[3-(4-methylpiperazine-1-carbonyl)-1H-pyrrolo[3,2-c]pyridin-6-yl]-3-(trifluoromethyl)pyrazol-4-yl]imidazole-2-carbonyl]amino]benzoyl]piperazine-1-carbonyl]piperidin-1-ium-1-yl]acetic acid. 1:1 2,2,2-trifluoroacetate] and `Cn1c(-c2cn(-c3cc4[nH]cc(C(=O)N5CC[C@H](O)C5)c4cn3)nc2C(F)(F)F)cnc1C(=O)Nc1ccc(C(=O)N2CCN(C(=O)[C@H]3CC[N@+](CC(=O)O)(CC4CNC4)CC3)CC2)c(Cl)c1` [Example 155, cis-2-[1-(azetidin-3-ylmethyl)-4-[4-[2-chloro-4-[[5-[1-[3-[(3S)-3-hydroxypyrrolidine-1-carbonyl]-1H-pyrrolo[3,2-c]pyridin-6-yl]-3-(trifluoromethyl)pyrazol-4-yl]-1-methyl-imidazole-2-carbonyl]amino]benzoyl]piperazine-1-carbonyl]piperidin-1-ium-1-yl]acetic acid. 1:1 2,2,2-trifluoroacetate] are within 1.5-fold of each other in IC90: 349 nM for the first, 329 nM for the second.

First: Cn1c(-c2cn(-c3cc4nn(CC(N)=O)cc4cn3)nc2C(F)(F)F)cnc1C(=O)Nc1ccc(C(=O)N2CCN(C(=O)[C@H]3CC[N@+](CC(=O)O)(CC4CNC4)CC3)CC2)c(Cl)c1 [Example 149, cis-2-[4-[4-[4-[[5-[1-[2-(2-amino-2-keto-ethyl)pyrazolo[4,3-c]pyridin-6-yl]-3-(trifluoromethyl)pyrazol-4-yl]-1-methyl-imidazole-2-carbonyl]amino]-2-chloro-benzoyl]piperazine-1-carbonyl]-1-(azetidin-3-ylmethyl)piperidin-1-ium-1-yl]acetic acid. 1:1 2,2,2-trifluoroacetate]
Second: Cn1c(-c2cn(-c3cc4[nH]cc(C(N)=O)c4cn3)nc2C(F)(F)F)cnc1C(=O)Nc1ccc(C(=O)N2CCN(C(=O)[C@H]3CC[N@+](CC(=O)O)(CC4CNC4)CC3)CC2)c(Cl)c1 [Example 157, cis-2-[1-(azetidin-3-ylmethyl)-4-[4-[4-[[5-[1-(3-carbamoyl-1H-pyrrolo[3,2-c]pyridin-6-yl)-3-(trifluoromethyl)pyrazol-4-yl]-1-methyl-imidazole-2-carbonyl]amino]-2-chloro-benzoyl]piperazine-1-carbonyl]piperidin-1-ium-1-yl]acetic acid. 1:1 2,2,2-trifluoroacetate]
The IC90 of the first is 2-fold higher: 744 nM for the first, 368 nM for the second.

`C[C@@H](O)c1cc2nc(-n3cc(-c4cnc(C(=O)Nc5ccc(C(=O)N6CCN(C(=O)[C@H]7CC[N@+](CC(=O)O)(CC8CNC8)CC7)CC6)c(Cl)c5)n4C)c(C(F)(F)F)n3)ccc2[nH]1` [Example 150, cis-2-[1-(azetidin-3-ylmethyl)-4-[4-[2-chloro-4-[[5-[1-[2-[(1R)-1-hydroxyethyl]-1H-pyrrolo[3,2-b]pyridin-5-yl]-3-(trifluoromethyl)pyrazol-4-yl]-1-methyl-imidazole-2-carbonyl]amino]benzoyl]piperazine-1-carbonyl]piperidin-1-ium-1-yl]acetic acid;formate] and `Cn1c(-c2cn(-c3ccc4[nH]c(CCO)cc4n3)nc2C(F)(F)F)cnc1C(=O)Nc1ccc(C(=O)N2CCN(C(=O)[C@H]3CC[N@+](CC(=O)O)(CC4CNC4)CC3)CC2)c(Cl)c1` [Example 162, cis-2-[1-(azetidin-3-ylmethyl)-4-[4-[2-chloro-4-[[5-[1-[2-(2-hydroxyethyl)-1H-pyrrolo[3,2-b]pyridin-5-yl]-3-(trifluoromethyl)pyrazol-4-yl]-1-methyl-imidazole-2-carbonyl]amino]benzoyl]piperazine-1-carbonyl]piperidin-1-ium-1-yl]acetic acid;formate] are within 1.5-fold of each other in IC90: 217 nM for the first, 203 nM for the second.

`Cn1c(-c2cn(-c3ccc4[nH]c(CO)cc4n3)nc2C(F)(F)F)cnc1C(=O)Nc1ccc(C(=O)N2CCN(C(=O)[C@H]3CC[N@+](CC(=O)O)(CC4CNC4)CC3)CC2)c(F)c1` [Example 151, cis-2-[1-(azetidin-3-ylmethyl)-4-[4-[2-fluoro-4-[[1-methyl-5-[1-(2-methylol-1H-pyrrolo[3,2-b]pyridin-5-yl)-3-(trifluoromethyl)pyrazol-4-yl]imidazole-2-carbonyl]amino]benzoyl]piperazine-1-carbonyl]piperidin-1-ium-1-yl]acetic acid. 1:1 2,2,2-trifluoroacetate] and `Cc1cc(NC(=O)c2ncc(-c3cn(-c4ccc5[nH]c(CO)cc5n4)nc3C(F)(F)F)n2C)ccc1C(=O)N1CCN(C(=O)[C@H]2CC[N@+](CC(=O)O)(CC3CNC3)CC2)CC1` [Example 153, cis-2-[1-(azetidin-3-ylmethyl)-4-[4-[2-methyl-4-[[1-methyl-5-[1-(2-methylol-1H-pyrrolo[3,2-b]pyridin-5-yl)-3-(trifluoromethyl)pyrazol-4-yl]imidazole-2-carbonyl]amino]benzoyl]piperazine-1-carbonyl]piperidin-1-ium-1-yl]acetic acid. 1:1 2,2,2-trifluoroacetate] are within 1.5-fold of each other in IC90: 403 nM for the first, 384 nM for the second.

Compared with `Cc1cc(NC(=O)c2ncc(-c3cn(-c4ccc(N)cc4F)nc3C(F)(F)F)n2C)ccc1C(=O)N1CCN(C(=O)[C@H]2CC[N@+](CC(=O)O)(CC3CNC3)CC2)CC1` [Example 152, cis-2-[4-[4-[4-[[5-[1-(4-amino-2-fluoro-phenyl)-3-(trifluoromethyl)pyrazol-4-yl]-1-methyl-imidazole-2-carbonyl]amino]-2-methyl-benzoyl]piperazine-1-carbonyl]-1-(azetidin-3-ylmethyl)piperidin-1-ium-1-yl]acetic acid. 1:1 2,2,2-trifluoroacetate], `Cn1c(-c2cn(-c3ccc(N)cc3F)nc2C(F)(F)F)cnc1C(=O)Nc1ccc(C(=O)N2CCN(C(=O)C3CC[N+](CCCO)(CC(=O)O)CC3)CC2)c(Cl)c1` (stereo not drawn) [Example 159, 2-[4-[4-[4-[[5-[1-(4-amino-2-fluoro-phenyl)-3-(trifluoromethyl)pyrazol-4-yl]-1-methyl-imidazole-2-carbonyl]amino]-2-chloro-benzoyl]piperazine-1-carbonyl]-1-(3-hydroxypropyl)piperidin-1-ium-1-yl]acetic acid. 1:1 2,2,2-trifluoroacetate] is 1.5-fold higher in IC90: 421 nM for the first, 647 nM for the second.

Going from `Cn1c(-c2cn(-c3cc4[nH]c(CCO)cc4cn3)nc2C(F)(F)F)cnc1C(=O)Nc1ccc(C(=O)N2CCN(C(=O)[C@H]3CC[N@+](CC(=O)O)(CC4CNC4)CC3)CC2)c(Cl)c1` [Example 154, cis-2-[1-(azetidin-3-ylmethyl)-4-[4-[2-chloro-4-[[5-[1-[2-(2-hydroxyethyl)-1H-pyrrolo[3,2-c]pyridin-6-yl]-3-(trifluoromethyl)pyrazol-4-yl]-1-methyl-imidazole-2-carbonyl]amino]benzoyl]piperazine-1-carbonyl]piperidin-1-ium-1-yl]acetic acid;formate] to `Cn1c(-c2cn(-c3ccc4[nH]c(C[C@H](O)CO)cc4n3)nc2C(F)(F)F)cnc1C(=O)Nc1ccc(C(=O)N2CCN(C(=O)[C@H]3CC[N@+](CC(=O)O)(CC4CNC4)CC3)CC2)c(Cl)c1` [Example 160, cis-2-[1-(azetidin-3-ylmethyl)-4-[4-[2-chloro-4-[[5-[1-[2-[(2S)-2,3-dihydroxypropyl]-1H-pyrrolo[3,2-b]pyridin-5-yl]-3-(trifluoromethyl)pyrazol-4-yl]-1-methyl-imidazole-2-carbonyl]amino]benzoyl]piperazine-1-carbonyl]piperidin-1-ium-1-yl]acetic acid;formate], the IC90 rises from 172 nM to 474 nM (2.8-fold).

First: CNC(=O)c1c[nH]c2cc(-n3cc(-c4cnc(C(=O)Nc5ccc(C(=O)N6CCN(C(=O)[C@H]7CC[N@+](CC(=O)O)(CC8CNC8)CC7)CC6)c(Cl)c5)n4C)c(C(F)(F)F)n3)ncc12 [Example 156, cis-2-[1-(azetidin-3-ylmethyl)-4-[4-[2-chloro-4-[[1-methyl-5-[1-[3-(methylcarbamoyl)-1H-pyrrolo[3,2-c]pyridin-6-yl]-3-(trifluoromethyl)pyrazol-4-yl]imidazole-2-carbonyl]amino]benzoyl]piperazine-1-carbonyl]piperidin-1-ium-1-yl]acetic acid. 1:1 2,2,2-trifluoroacetate]
Second: CN(C)S(=O)(=O)n1c(CCO)cc2cnc(-n3cc(-c4cnc(C(=O)Nc5ccc(C(=O)N6CCN(C(=O)[C@H]7CC[N@+](CC(=O)O)(CC8CNC8)CC7)CC6)c(Cl)c5)n4C)c(C(F)(F)F)n3)cc21 [Example 158, cis-2-[1-(azetidin-3-ylmethyl)-4-[4-[2-chloro-4-[[5-[1-[1-(dimethylsulfamoyl)-2-(2-hydroxyethyl)pyrrolo[3,2-c]pyridin-6-yl]-3-(trifluoromethyl)pyrazol-4-yl]-1-methyl-imidazole-2-carbonyl]amino]benzoyl]piperazine-1-carbonyl]piperidin-1-ium-1-yl]acetic acid;formate]
The IC90 of the first is 5-fold lower: 156 nM for the first, 783 nM for the second.

`CC(Cn1ccc2nc(-n3cc(-c4cnc(C(=O)Nc5ccc(C(=O)N6CCN(C(=O)[C@H]7CC[N@+](CC(=O)O)(CC8CNC8)CC7)CC6)c(Cl)c5)n4C)c(C(F)(F)F)n3)ccc21)C(N)=O` (stereo partly drawn) [Example 161, 2-[4-[4-[4-[[5-[1-[1-(3-amino-2-methyl-3-oxo-propyl)pyrrolo[3,2-b]pyridin-5-yl]-3-(trifluoromethyl)pyrazol-4-yl]-1-methyl-imidazole-2-carbonyl]amino]-2-chloro-benzoyl]piperazine-1-carbonyl]-1-(azetidin-3-ylmethyl)piperidin-1-ium-1-yl]acetic acid;2,2,2-trifluoroacetate] gave an IC90 of 390 nM.
